Test results: article PMC11891452, “Molecular Insights Into β‐Glucuronidase Inhibition by Alhagi Graecorum Flavonoids: A Computational and Experimental Approach” (ChemistryOpen, 2024)

Experiments:
[1] = target: T1, β‐glucuronidase (Escherichia coli, UniProt P05804); assay: in vitro β‐glucuronidase inhibition assay with PNPG as substrate; type: biochemical; conditions: pH 7.4, 37 °C, 30 min, mean±SD; for IC50: PNPG substrate; for inhibition at 10 µM: inhibitor 10 μM, PNPG 250 μM, read-out: Inhibition rate 10 μM (%)
T1 construct: purchased Sigma (USA)
T1 sequence (P05804 whole entry): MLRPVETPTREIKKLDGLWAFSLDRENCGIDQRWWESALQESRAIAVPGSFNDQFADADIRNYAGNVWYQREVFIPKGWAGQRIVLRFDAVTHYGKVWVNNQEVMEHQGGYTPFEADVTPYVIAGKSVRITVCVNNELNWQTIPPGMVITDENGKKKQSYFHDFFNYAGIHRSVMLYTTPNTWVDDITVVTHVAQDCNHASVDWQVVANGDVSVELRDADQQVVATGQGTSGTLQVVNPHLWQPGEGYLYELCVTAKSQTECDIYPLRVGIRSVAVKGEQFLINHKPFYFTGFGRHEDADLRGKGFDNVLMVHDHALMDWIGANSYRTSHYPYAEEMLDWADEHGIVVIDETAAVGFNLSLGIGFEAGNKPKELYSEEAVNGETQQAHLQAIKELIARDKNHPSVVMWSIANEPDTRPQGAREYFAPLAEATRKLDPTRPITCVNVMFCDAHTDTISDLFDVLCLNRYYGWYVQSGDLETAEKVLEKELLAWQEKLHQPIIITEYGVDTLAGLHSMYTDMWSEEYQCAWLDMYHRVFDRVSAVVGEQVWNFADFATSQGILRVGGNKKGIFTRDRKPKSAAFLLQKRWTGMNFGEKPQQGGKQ
Description: The substrate p‐Nitrophenyl‐β‐D‐glucuronide (PNPG) and the employed reference drug (−)‐Epigallocatechin gallate (EGCG) were purchased from Sigma‐Aldrich. For this study, β‐glucuronidase, the enzyme of interest, was purchased from Sigma (USA). All other chemicals and solvents used were in the highest purity state or HPLC grade. Five isolated flavonoids from A. graecorum were assigned for their β‐glucuronidase inhibitory efficacy. We prepared the β‐glucuronidase enzyme according to the method reported by Weng et al..[27] A 100 mM stock solution of the substrate (PNPG) was prepared using […] and stored at −20 °C for subsequent utilization. Milli‐Q water was used exclusively for both the PNPG solution and the 0.1 M phosphate buffer solution (pH 7.4).
To estimate the activities of tested flavonoids as inhibitors against β‐glucuronidase, we employed PNPG as the substrate. The assessment procedure followed well‐documented previously reported protocols.[28] In brief, 96‐well plate assays were performed (100 μL/well) to assess β‐glucuronidase inhibition by flavonoids. Each well contained: β‐glucuronidase (2 μg/mL, 10 μL), flavonoid/EGCG inhibitor (10 μM, 10 μL), PNPG substrate (250 μM, 10 μL), and PBS buffer (pH 7.4, 70 μL). Reactions were done in triplicate. Enzyme activity was estimated by tracking PNP formation (OD₄₁₀ nm) after incubation (37 °C, 30 min). A standard curve (0–120 μM PNP) was used to quantify PNP. Relative activity (%) was calculated compared to the blank control. In addition, EGCG was employed as a reference drug. IC50 assays for flavonoid inhibition of β‐glucuronidase were conducted at temperature of 37 °C for 30 minutes. Each reaction contained: β‐glucuronidase (2.0 μg/mL, 10 μL), flavonoid/EGCG (varying concentrations, 0.001–1000 μM, 10 μL), and PBS buffer (pH 7.4, 70 μL). Relative activity (%) was measured as enzyme activity with an inhibitor compared to activity without an inhibitor. A concentration‐response curve was constructed using relative activity data to determine IC50 values.
(§1) To ensure reproducibility, all data are presented as the mean value±standard deviation (SD). This reflects the average value obtained from three independent trials. IC50 values, signifying the inhibitor concentration required for half‐maximal response, were determined from the concentration‐response curves. The IC50 and inhibition constant (Ki) values were estimated using nonlinear regression by the GraphPad Prism 9.0 software.

[2] = target: T1, β‐glucuronidase; assay: inhibition kinetics (Michaelis‐Menten, Lineweaver‐Burk and slope plots) of PNPG hydrolysis; type: biochemical; conditions: for mode of inhibition: Lineweaver‐Burk plots, PNPG hydrolysis; for Ki: PNPG 200-1000 μM, from slope plots of Lineweaver‐Burk plots
Description: To analyze the binding interactions between the tested inhibitors and the target enzyme, we constructed Michaelis‐Menten and Lineweaver‐Burk plots. These plots helped us understand how the inhibitors affect the enzyme′s kinetics. The Lineweaver‐Burk plot′s intersection point was used to identify the inhibition mode (noncompetitive, competitive, uncompetitive, or mixed). Established methods were employed to determine the specific inhibition mode and Ki values.[27, 28]
as §1

| SMILES | IC50 [1] [µM] | inhibition at 10 µM [1] [%] | mode of inhibition [2] | Ki [2] [µM] |
| --- | --- | --- | --- | --- |
| O=C(O[C@@H]1Cc2c(O)cc(O)cc2O[C@@H]1c1cc(O)c(O)c(O)c1)c1cc(O)c(O)c(O)c1 [EGCG, (−)‐Epigallocatechin gallate, reference compound] | 3.26 ± 0.05 | 96.14 ± 0.54 | mixed | 1.42 |
| COc1cc(-c2cc(=O)c3c(O)cc(O)cc3o2)ccc1O [chrysoeriol] | – | 87.97 ± 0.65 | noncompetitive | – |
| COc1cc(-c2oc3cc(O)cc(O)c3c(=O)c2O)ccc1O [isorhamnetin] | 26.4 ± 0.72 | 73.9 ± 1.09 | – | – |
| O=c1c(O)c(-c2cc(O)c(O)c(O)c2)oc2cc(O)cc(O)c12 [myricetin] | 3.95 ± 0.04 | 92.59 ± 0.56 | noncompetitive | 3.07 |
| O=C1C[C@@H](c2ccc(O)cc2)Oc2cc(O)cc(O)c21 [naringenin] | 52.3 ± 2.44 | 56 ± 2.5 | – | – |
| COc1ccc(-c2oc3cc(O)cc(O)c3c(=O)c2O)cc1O [tamarixetin] | 19.9 ± 1.23 | 80 ± 1.71 | – | – |
